The results in this text go back to patent publication US20250114374A1, “BCL-2 INHIBITORS” (Newave Pharmaceutical Inc., priority 2021, published 2025).

For orientation: pIC50 means the IC50 on a negative log10 scale, so that one unit is a factor of ten.

pIC50: −log10 of the molar value.

The experiment relates to RS4; 11 with G101V mutation. The experiment is described as follows: In vitro anti-proliferation assay (ATPlite luminescence) in BCL-2-dependent ALL cell line RS4;11 with G101V mutation. In kind it is cell-based. To be noted: cellular anti-proliferative IC50, about 72 hours, medium with 10% FBS, ATPlite; read-out: RS411-G101V IC50. The gist of the method: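 RS4;11 G101V cells at about 1×10^4 per well were exposed to a range of compound concentrations for about 72 h in medium with 10% FBS. Cellular ATP was measured by ATPlite luminescence after lysis, and IC50 was derived from the dose-response.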
A general note: ATP-based viability assays read luminescence as a measure of living cells.
As to `COc1ncc(CN2CCN(C3CC4(CCN(c5ccc(C(=O)NS(=O)(=O)c6ccc(NCC7CCC(C)(O)CC7)c([N+](=O)[O-])c6)c(N6c7cc8cc[nH]c8nc7O[C@H]7COCC[C@@H]76)c5)CC4)C3)[C@@H](c3ccccc3OC(C)C)C2)cc1N1CCOCC1` (stereo partly drawn) [Example 163, N-((4-((((1r,4r)-4-hydroxy-4-methylcyclohexyl)methyl)amino)-3-nitrophenyl)sulfonyl)-4-(2-((S)-2-(2-isopropoxyphenyl)-4-((6-methoxy-5-morpholinopyridin-3-yl)methyl)piperazin-1-yl)-7-azaspiro[3.5]nonan-7-yl)-2-((5aS,9aR)-6,7,9,9a-tetrahydro-1H-pyrano[3,4-b]pyrrolo[3′,2′:5,6]pyrido[3,2-e][1,4]oxazin-5(5aH)-yl)benzamide], the pIC50 is 7.55.

For the compound `Cc1ccccc1[C@@H]1CN(C2CCC(N3CCOC[C@@H]3C)CC2)CCN1C1CC2(CCN(c3ccc(C(=O)NS(=O)(=O)c4cc5c(c([N+](=O)[O-])c4)N[C@H](C4CCOCC4)CO5)c(N4c5cc6cc[nH]c6nc5O[C@H]5COCC[C@@H]54)c3)CC2)C1` (stereo partly drawn) [Example 203, 4-(2-((R)-4-((1S,4R)-4-((S)-3-methylmorpholino)cyclohexyl)-2-(o-tolyl)piperazin-1-yl)-7-azaspiro[3.5]nonan-7-yl)-N-(((R)-5-nitro-3-(tetrahydro-2H-pyran-4-yl)-3,4-dihydro-2H-benzo[b][1,4]oxazin-7-yl)sulfonyl)-2-((5aS,9aR)-6,7,9,9a-tetrahydro-1H-pyrano[3,4-b]pyrrolo[3′,2′:5,6]pyrido[3,2-e][1,4]oxazin-5(5aH)-yl)benzamide], the pIC50 is 7.16.

In the case of `Cc1ccccc1[C@@H]1CN(Cc2ccc(F)c(F)c2)CCN1C1CC2(CCN(c3ccc(C(=O)NS(=O)(=O)c4cc5c(c([N+](=O)[O-])c4)N[C@H](C4CCOCC4)CO5)c(N4c5cc6cc[nH]c6nc5O[C@H]5COCC[C@@H]54)c3)CC2)C1` [Example 168, 4-{2-[(2R)-4-[(3,4-difluorophenyl)methyl]-2-(2-methylphenyl)piperazin-1-yl]-7-azaspiro[3.5]nonan-7-yl}-2-[(3R,8S)-2,5-dioxa-9,15,17-triazatetracyclo[8.7.0.0^{3,8}.0^{12,16}]heptadeca-1(10),11,13,16-tetraen-9-yl]-N-[(3R)-5-nitro-3-(oxan-4-yl)-3,4-dihydro-2H-1,4-benzoxazin-7-ylsulfonyl]benzamide], the pIC50 was 7.19.

Take `COc1nccc(CN2CCN(C3CC4(CCN(c5ccc(C(=O)NS(=O)(=O)c6ccc(NCC7CCC(C)(O)CC7)c([N+](=O)[O-])c6)c(N6c7cc8cc[nH]c8nc7O[C@H]7COCC[C@@H]76)c5)CC4)C3)[C@@H](c3ccccc3OC(C)C)C2)c1OC` (stereo partly drawn) [Example 150, 4-(2-((S)-4-((2,3-dimethoxypyridin-4-yl)methyl)-2-(2-isopropoxyphenyl)piperazin-1-yl)-7-azaspiro[3.5]nonan-7-yl)-N-((4-((((1r,4r)-4-hydroxy-4-methylcyclohexyl)methyl)amino)-3-nitrophenyl)sulfonyl)-2-((5aS,9aR)-6,7,9,9a-tetrahydro-1H-pyrano[3,4-b]pyrrolo[3′,2′:5,6]pyrido[3,2-e][1,4]oxazin-5(5aH)-yl)benzamide]: the negative logarithm of the IC50 (pIC50) is 7.85.
